Laboratory results reported in patent EP0799174B1, “BIOCIDAL ALCOHOLS, THEIR PRODUCTION AND THEIR USE” (SCHÜLKE & MAYR GMBH, priority 1994, dated 1996).

How the values were obtained:
Type in all cases: cell-based
[1] = tested on: Penicillium funiculosum ATCC 36839; test: MIC values, water-soluble (inhibition titre, dilution series in CSL)
[2] = tested on: Germ mixture of Staphylococcus aureus, Staphylococcus epidermis, Escherichia coli, Klebsiella pneumoniae, Enterobacter gergoviae, Pseudomonas aeruginosa …; test: Preservative test: weekly loading of the sample with germ suspension; settings: aromatic alcohol 0.5% in sulfosuccinate 12.0% / betaine 3.0% formulation
Text: Standard formulation: • sulfosuccinate 12.0% • betaine 3.0% • aromatic alcohol 0.5% • re-fatting agent • skin care additives • thickener • dem. water to 100 Test germs: Germ mixture of Staphylococcus aureus, Staphylococcus epidermis, Escherichia coli, Klebsiella pneumoniae, Enterobacter gergoviae, Pseudomonas aeruginosa, Pseudomonas fluorescens, Pseudomonas putida, Aspergillus niger, Penicillium funiculosum, Candida albicans; Total germ count 10^8-10^9/ml. Test method: weekly loading of the sample with germ suspension; smear onto CS and Sabouraud agar. See also K.-H. Diehl, P. Oltmanns, J. Ramsbotham, Seife, Öle, Fette, Wachse 118 (1992) 546.
Data expressed semi-qualitatively: • - no growth < 10^2 CFU/g (CFU = colony-forming units) • + slight growth approx. 10^3 CFU/g • ++ moderate growth approx. 10^4-10^5 CFU/g • +++ heavy growth > 10^5 CFU/g

[3] = tested on: Aspergillus niger ATCC 6275; test: MIC values, water-soluble (inhibition titre, dilution series in CSL)
Ps. aeruginosa = test: Quantitative surface test according to DGHM, alcoholic surface disinfectant; settings: additive (0.05% for single substances) in ethanol 25.0 % / 1-propanol 35.0 % formulation, germs deposited after approx. 20 minutes
Text: Standard formulation: • ethanol (MEK denatured) 25.0 % • 1-propanol 35.0 % • perfume 0.02 % • benzotriazole 0.001 % • Marlipal 013/70 0.1% (isotridecanpolyethyleneglycol-(7)-ether = C13 oxo alcohol + 7 mol ethylene oxide) • active ingredient additive x% • dem. water to 100 Test germ: Ps. aeruginosa Test method:
Quantitative surface test according to DGHM (Deutsche Gesellschaft für Hygiene and Microbiology = German Association for Hygiene and Microbiology). In order to exclude the effectiveness of the readily volatile alcohol components (ethanol, 1-propanol), the preparations were deposited onto the surfaces and the germs were deposited after approx. 20 minutes. Test surfaces: PVC and OP tiles Data as reduction factors (log stages)

[4] = tested on: Proteus vulgaris NCTC 4635; test: MIC values, water-soluble (inhibition titre, dilution series in CSL)
[5] = tested on: Staphylococcus aureus ATCC 6538; test: as above
Description: (§1) Standard formulation: • Rewopal MPG 40 25.0 g • aromatic alcohol 10 mmol • dem.* water to 100 g • lactic acid for adjusting the pH value to 7.0 q.s.
(§2) In sterile test tubes, 5 ml each of the dilutions of the disinfectant in WSH (water of standardized hardness) are mixed with 5 ml double-concentrated casein peptone soybean flour peptone solution (CSL) or CSL and deactivating substances.
(§3) To determine the bacteriostatic action on Staphylococcus aureus and Proteus mirabilis the tubes are inoculated by adding 0.1 ml of a CSL culture diluted 1:10 with CSL and incubated for 24 h at 37°C.
(§4) To test the fungistatic action, 0.1 ml of an undiluted CSL culture of Candida albicans which has been incubated at 37°C for 72 h is used in each case. Evaluation takes place after 72 h at 37°C.
(§5) The highest dilution of the preparation in CSL or CSL and deactivating substances that still suppresses growth of the test germs after […] incubation serves as the measure of the multiplication-inhibiting action (inhibition titre).
(§6) In the case of the disinhibition tests, the culture media are to be adjusted to a pH value of 7.0 ± 0.2 according to the state of the disinfectant.
(§7) Standard formulation: • aromatic alcohol 5.0 % • Brij 58 5.0 % • 1,3-butanediol to 100 • Test germs: see above • Test method: see above

[6] = tested on: Candida albicans ATCC 10231; test: as above
Description: as §1, §2, §3, §4, §5, §6, §7

[7] = tested on: Mycobacterium terrae ATCC 15755; test: Germ carrier experiment with standard cotton; set-up: key: E: individual colonies; M: several colonies; +: weak growth; ++: moderate growth; +++: heavy growth; ++++: very heavy growth; ∞: lawn growth; settings: Rewopal MPG 40 25.0%, aromatic alcohol 2.0 %, dem. water to 100
Description: • Rewopal MPG 40 25.0% • aromatic alcohol 2.0 % • dem. water to 100
The bacteria are elutriated with 5 ml CSL from a 24 h-old (37°C) culture onto CSA plates measuring approx. 9 cm in diameter, the suspension being diluted with CSL if necessary. The number of CFU/ml is to be determined using surface culture. It should be > 10^9/ml.
The sterilized and dried germ carriers are introduced into the bacterial suspension and left in it for 15 minutes, during which they are turned over twice.
A number (4) of contaminated, thoroughly impregnated germ carriers, corresponding to the proposed removal times - 15, 30, 60 and 120 minutes - is placed in a small dish and 10 ml of the disinfectant solution to be tested in WSH are poured over them. Air bubbles are to be removed by repeated turning of the germ carriers.
After the corresponding action times, the germ carriers are to be removed from the disinfectant solution, and after rinsing twice in each case for 1 min in 10 ml ML solution (see Appendix) to which the deactivating substances were optionally added, the germ carriers are placed onto the surface of a Löwenstein-Jensen nutrient medium with tweezers and moved backwards and forwards 3 to 4 times using light pressure. After inoculating the nutrient medium surface the small cloth is to remain lying directly above the condensed water level of the nutrient medium.
Germ carriers pre-treated in the same way, but kept in WSH for 120 minutes instead of in disinfectant solution are to be inoculated as a control. The inoculated tubes are incubated at 37°C for 3 weeks.

[8] = standard formulation: Rewopal MPG 40 25.0 g, aromatic alcohol 10 mmol, dem. water to 100 g, pH 7.0
[9] = standard formulation: aromatic alcohol 5.0 %, Brij 58 5.0 %, 1,3-butanediol to 100

Structure (SMILES) | MIC (minimum inhibiting concentration) P. funi. [1, 8] [μmol/100 ml test solution] | MIC (minimum inhibiting concentration) A. niger [3, 8] [μmol/100 ml test solution] | MIC (minimum inhibiting concentration) P. vulgaris [4, 8] | MIC (minimum inhibiting concentration) S. aureus [5, 8] | MIC (minimum inhibiting concentration) C. albicans [6, 8] [μmol/100 ml test solution] | growth of M. terrae after action time 15' [7] | growth of M. terrae after action time 30' [7] | growth of M. terrae after action time 60' [7] | growth of M. terrae after action time 120' [7] | other results
CC(C)(CO)Cc1ccccc1 [Alcohol 2, 2,2-dimethyl-3-phenyl-1-propanol] | 313 | 313 | 313 μmol/100 ml test solution | 313 μmol/100 ml test solution | 313 | +++ | ++ | + | M | growth, 1st week ([2]; 1st week): - (no growth < 10^2 CFU/g); growth, 2nd week ([2]; 2nd week): - (no growth < 10^2 CFU/g); growth, 3rd week ([2]; 3rd week): - (no growth < 10^2 CFU/g); growth, 4th week ([2]; 4th week): - (no growth < 10^2 CFU/g); growth, 5th week ([2]; 5th week): - (no growth < 10^2 CFU/g); reduction factors (log stages) (Ps. aeruginosa; PVC, 30'): >6.0 log stages; reduction factors (log stages) (Ps. aeruginosa; PVC, 60'): >5.4 log stages; reduction factors (log stages) (Ps. aeruginosa; PVC, 240'): >6.5 log stages; reduction factors (log stages) (Ps. aeruginosa; Tiles, 30'): 4.1 log stages; reduction factors (log stages) (Ps. aeruginosa; Tiles, 60'): 4.9 log stages; reduction factors (log stages) (Ps. aeruginosa; Tiles, 240'): >5.8 log stages
Cc1cccc(CC(C)(C)CO)c1 [Alcohol 3, 2,2-dimethyl-3-(3-methylphenyl) propanol] | 156 | 156 | 2,500 μmol/100 ml test solution | 2,500 μmol/100 ml test solution | 625 | +++ | + | + | E | MIC (minimum inhibiting concentration) P. funi. [1, 9]: 313 µmol/100 ml test solution; MIC (minimum inhibiting concentration) A. niger [3, 9]: 625 µmol/100 ml test solution; MIC (minimum inhibiting concentration) P. vulgaris [4, 9]: 625 µmol/100 ml test solution; MIC (minimum inhibiting concentration) S. aureus [5, 9]: 625 µmol/100 ml test solution; MIC (minimum inhibiting concentration) C. albicans [6, 9]: 625 µmol/100 ml test solution
